Data on four molecules can be found in paper PMC10534724, “Interaction of ALK Inhibitors with Polyspecific Organic Cation Transporters and the Impact of Substrate-Dependent Inhibition on the Prediction of Drug–Drug Interactions” (Pharmaceutics, 2023).

For assay [1], the target named is T1, hMATE2-K (Homo sapiens, UniProt Q86VL8).
T1 construct: expressed in transfected cells
The assay is described as follows: Inhibition of hMATE2-K-mediated substrate uptake in transfected HEK293 cells (pH 8.0). The format is in vitro ADME. Conditions: for In vivo DDI study recommendation, hMATE2-K: FDA-recommended criteria; for inhibition at 20 µM: HEK293, 20 µM inhibitor, 1 µM mIBG, 2 min, 37 °C.

Assay [2] has as its target T2, hOCT1 (Homo sapiens, UniProt O15245).
T2 construct: expressed in transfected cells
T2 sequence (O15245 1-554): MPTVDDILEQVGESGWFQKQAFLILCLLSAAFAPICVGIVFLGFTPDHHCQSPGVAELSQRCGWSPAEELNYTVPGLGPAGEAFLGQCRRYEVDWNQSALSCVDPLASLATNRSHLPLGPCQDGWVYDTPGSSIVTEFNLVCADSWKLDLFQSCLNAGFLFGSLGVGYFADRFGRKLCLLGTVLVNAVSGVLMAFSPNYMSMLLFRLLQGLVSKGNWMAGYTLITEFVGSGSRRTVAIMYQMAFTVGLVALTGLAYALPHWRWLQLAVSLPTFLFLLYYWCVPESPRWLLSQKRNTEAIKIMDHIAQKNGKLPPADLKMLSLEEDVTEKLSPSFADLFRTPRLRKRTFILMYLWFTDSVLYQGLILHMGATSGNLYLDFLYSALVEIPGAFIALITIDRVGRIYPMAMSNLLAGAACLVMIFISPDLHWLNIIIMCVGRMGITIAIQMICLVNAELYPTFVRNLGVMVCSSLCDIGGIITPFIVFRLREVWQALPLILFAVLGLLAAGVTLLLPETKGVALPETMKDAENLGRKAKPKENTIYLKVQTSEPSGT
The assay is described as follows: Inhibition of hOCT1-mediated substrate uptake in transfected HEK293 cells. The following applies: for In vivo DDI study recommendation, hOCT1: FDA-recommended criteria. The format is in vitro ADME.

Assay [3] concerns the target T3, hOCT2 (Homo sapiens, UniProt O15244).
T3 sequence (O15244 1-555): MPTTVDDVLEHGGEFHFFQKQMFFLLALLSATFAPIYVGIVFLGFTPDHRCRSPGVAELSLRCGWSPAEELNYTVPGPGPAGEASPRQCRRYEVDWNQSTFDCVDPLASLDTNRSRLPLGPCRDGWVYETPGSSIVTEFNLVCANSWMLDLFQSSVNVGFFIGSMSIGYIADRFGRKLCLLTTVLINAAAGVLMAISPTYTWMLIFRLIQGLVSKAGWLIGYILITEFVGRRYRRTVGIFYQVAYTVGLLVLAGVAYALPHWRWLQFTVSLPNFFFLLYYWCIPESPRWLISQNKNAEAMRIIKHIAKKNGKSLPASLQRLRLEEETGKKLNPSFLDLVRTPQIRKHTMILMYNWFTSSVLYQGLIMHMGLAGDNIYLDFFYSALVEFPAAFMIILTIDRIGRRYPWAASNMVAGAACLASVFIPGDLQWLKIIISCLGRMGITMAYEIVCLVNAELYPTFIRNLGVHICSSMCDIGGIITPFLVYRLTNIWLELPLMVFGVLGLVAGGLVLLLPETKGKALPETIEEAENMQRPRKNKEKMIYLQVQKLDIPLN
The assay is described as follows: Inhibition of hOCT2-mediated substrate uptake in transfected HEK293 cells. The following applies: for In vivo DDI study recommendation, hOCT2: FDA-recommended criteria; for inhibition at 20 µM: HEK293, 20 µM inhibitor, 1 µM mIBG, 2 min, 37 °C. The format is in vitro ADME. More on the design: expressed in transfected cells.

Assay [4] concerns the target T4, hMATE1 (Homo sapiens, UniProt Q96FL8).
T4 construct: expressed in transfected cells
T4 sequence (Q96FL8 1-570): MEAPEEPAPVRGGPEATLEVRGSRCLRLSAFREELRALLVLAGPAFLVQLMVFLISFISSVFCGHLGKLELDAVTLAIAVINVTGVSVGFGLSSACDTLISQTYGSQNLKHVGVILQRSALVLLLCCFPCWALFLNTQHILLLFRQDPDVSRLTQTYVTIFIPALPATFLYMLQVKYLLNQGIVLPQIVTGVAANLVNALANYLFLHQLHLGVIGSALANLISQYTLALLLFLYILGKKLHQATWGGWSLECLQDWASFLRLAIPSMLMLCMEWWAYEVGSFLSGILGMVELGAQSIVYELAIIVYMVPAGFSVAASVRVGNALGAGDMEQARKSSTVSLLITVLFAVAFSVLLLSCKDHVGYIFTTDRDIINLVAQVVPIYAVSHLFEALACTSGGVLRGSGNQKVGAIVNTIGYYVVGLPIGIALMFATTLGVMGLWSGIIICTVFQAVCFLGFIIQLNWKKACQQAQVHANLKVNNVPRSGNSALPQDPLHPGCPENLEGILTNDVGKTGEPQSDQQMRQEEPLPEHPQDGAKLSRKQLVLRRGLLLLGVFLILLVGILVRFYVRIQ
The assay is described as follows: Inhibition of hMATE1-mediated substrate uptake in transfected HEK293 cells (pH 8.0). The format is in vitro ADME. Conditions: for In vivo DDI study recommendation, hMATE1: FDA-recommended criteria.

For assay [5], the target named is T2, hOCT1. Also on record: method as in PMID 32487736. Conditions: substrate mIBG; HEK293; read-out: IC50, hOCT1-mediated mIBG uptake; cited from earlier work.
For assay [6], the target named is T5, hOCT3 (Homo sapiens, UniProt O75751).
T5 construct: expressed in transfected cells
T5 sequence (O75751 1-556): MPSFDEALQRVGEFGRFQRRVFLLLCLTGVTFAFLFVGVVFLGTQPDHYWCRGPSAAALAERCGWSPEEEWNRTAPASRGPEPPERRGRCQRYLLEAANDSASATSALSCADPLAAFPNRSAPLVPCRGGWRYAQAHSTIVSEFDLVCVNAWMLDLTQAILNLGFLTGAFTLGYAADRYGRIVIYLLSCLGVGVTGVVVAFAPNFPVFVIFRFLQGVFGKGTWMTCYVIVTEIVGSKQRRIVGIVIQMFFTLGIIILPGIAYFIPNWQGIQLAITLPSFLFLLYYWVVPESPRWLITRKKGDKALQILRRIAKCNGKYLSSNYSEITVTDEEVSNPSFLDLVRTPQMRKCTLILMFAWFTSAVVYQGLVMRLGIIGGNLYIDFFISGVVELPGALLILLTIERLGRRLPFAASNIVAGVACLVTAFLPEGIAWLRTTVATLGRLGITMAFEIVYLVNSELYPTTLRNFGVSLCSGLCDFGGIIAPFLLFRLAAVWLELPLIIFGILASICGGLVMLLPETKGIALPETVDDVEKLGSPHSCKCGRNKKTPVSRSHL
Put plainly: Inhibition of hOCT3-mediated substrate uptake in transfected HEK293 cells. The format is in vitro ADME. Conditions: for In vivo DDI study recommendation, hOCT3: FDA-recommended criteria.

The target in assay [7] is T3, hOCT2. The following applies: cited from earlier work.
Where [8] appears, read: HEK293, 20 µM inhibitor, 1 µM mIBG, 2 min, 37 °C.

Where two headings read alike, the source gives them in different places.

T1 sequence (Q86VL8 1-566 isoform Q86VL8-3): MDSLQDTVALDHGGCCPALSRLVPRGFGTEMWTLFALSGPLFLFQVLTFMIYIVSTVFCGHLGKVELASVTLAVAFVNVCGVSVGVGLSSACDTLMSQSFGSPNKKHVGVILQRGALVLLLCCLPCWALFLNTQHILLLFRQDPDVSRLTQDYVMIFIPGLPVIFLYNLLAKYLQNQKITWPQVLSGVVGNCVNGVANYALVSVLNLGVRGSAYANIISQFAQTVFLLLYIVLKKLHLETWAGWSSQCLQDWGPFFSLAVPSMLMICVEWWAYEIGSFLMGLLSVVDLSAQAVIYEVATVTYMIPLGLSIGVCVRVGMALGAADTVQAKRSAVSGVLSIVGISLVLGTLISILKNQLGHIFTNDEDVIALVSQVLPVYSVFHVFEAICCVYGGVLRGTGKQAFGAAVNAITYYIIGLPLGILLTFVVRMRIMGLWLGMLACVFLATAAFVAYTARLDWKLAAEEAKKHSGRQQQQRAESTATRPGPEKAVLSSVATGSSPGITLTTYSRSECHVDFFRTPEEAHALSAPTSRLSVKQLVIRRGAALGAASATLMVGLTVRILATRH

For orientation: IC50 means the midpoint of a concentration-inhibition curve. As for `C[C@@H](Oc1cc(-c2cnn(C3CCNCC3)c2)cnc1N)c1c(Cl)ccc(F)c1Cl` [Crizotinib], the “substrate dependency, hMATE2-K: more potent with metformin than with MPP+” value in assay [1] (IC50 ratio MPP+/metformin) is recorded as approximately 12 fold. The “substrate dependency, hMATE2-K: more potent with metformin than with mIBG” value in assay [1] (IC50 ratio mIBG/metformin) is given as “approximately 5 fold”. In addition, the “In vivo DDI study recommendation, hMATE2-K” value in assay [1] (substrate MPP+), in assay [1] (substrate mIBG) and in assay [1] (substrate metformin) was “No” in each case. Further, the “substrate dependency, hOCT1: more potent with metformin than with MPP+” value in assay [2] (IC50 ratio MPP+/metformin) is on record as approximately 21 fold. The “substrate dependency, hOCT1: more potent with metformin than with mIBG” value in assay [2] (IC50 ratio mIBG/metformin) is reported as “approximately 8 fold”. Besides, the IC50 in assay [2] (substrate 8.9 µM [14C]metformin, HEK293, 2 min, 37 °C, mean ± SD, read-out: IC50, hOCT1-mediated metformin uptake) was 4.98 ± 0.15 µM; in assay [5], 40.3 ± 5.5 µM. Also, the “In vivo DDI study recommendation, hOCT1” value in assay [2] (substrate MPP+), in assay [2] (substrate mIBG) and in assay [2] (substrate metformin) was “No” throughout. The “substrate dependency, hOCT2: more potent with metformin than with MPP+” value in assay [3] (IC50 ratio MPP+/metformin) is on record as approximately 16 fold. The “substrate dependency, hOCT2: more potent with metformin than with mIBG” value in assay [3] (IC50 ratio mIBG/metformin) is given as “approximately 2 fold”. Further, the “In vivo DDI study recommendation, hOCT2” value in assay [3] (substrate MPP+), in assay [3] (substrate mIBG) and in assay [3] (substrate metformin) was “No” in each case. Further, the “In vivo DDI study recommendation, hMATE1” value in assay [4] (substrate MPP+), in assay [4] (substrate mIBG) and in assay [4] (substrate metformin) was “No” each time. In assay [6] (metformin, mIBG, MPP+), the “substrate dependency, hOCT3: differences in IC50 values across substrates” value is reported as not above 5 fold. For the same molecule, the “In vivo DDI study recommendation, hOCT3” value in assay [6] (substrate MPP+), in assay [6] (substrate mIBG) and in assay [6] (substrate metformin) was “No” throughout.
On to `CN/C(=N/CCSCc1nc[nH]c1C)NC#N` [cimetidine], for which the “higher potency on OCT2 with atenolol as substrate compared with metformin” value in assay [7] was 10 fold.
By inhibition is commonly meant the relative decrease from the control value, in per cent. `C#Cc1cccc(Nc2ncnc3cc(OCCOC)c(OCCOC)cc23)c1` [erlotinib, Erlotinib]: the inhibition at 20 µM in assay [1] and in assay [3] was not above 50% in each case.
Take `C[C@H]1Oc2cc(cnc2N)-c2c(nn(C)c2C#N)CN(C)C(=O)c2ccc(F)cc21` [lorlatinib]: the inhibition at 20 µM in assay [1] was not above 50%; in assay [2] (setting [8]), not above 50%; in assay [3], not above 50%; in assay [4] (setting [8]) it was not above 50%; in assay [6] (HEK293, 20 µM inhibitor, 1 µM mIBG, 2 min, 37 °C, read-out: inhibition of mIBG uptake by hOCT3) it was not above 50%.
